Assay results published in US20080089844A1 (priority 2002, published 2008).
Entries after “also recorded” stand apart in the source; their conditions may differ. Where two headings read alike, the source gives them in different places.

How the values were obtained:
[1] = tested on: primary cultures of myocytes; format: cell-based, rat
[2] = tested on: cardiac ventricular myocytes; format: cell-based, rat
[3] = tested on: ventricular myocyte, cortex and trachea primary cultures; format: cell-based, rat
Shaker potassium channel = Shaker potassium channel (Drosophila melanogaster, UniProt P08510); conditions: cited from earlier work
Sequence of Shaker potassium channel (P08510 whole entry, looked up): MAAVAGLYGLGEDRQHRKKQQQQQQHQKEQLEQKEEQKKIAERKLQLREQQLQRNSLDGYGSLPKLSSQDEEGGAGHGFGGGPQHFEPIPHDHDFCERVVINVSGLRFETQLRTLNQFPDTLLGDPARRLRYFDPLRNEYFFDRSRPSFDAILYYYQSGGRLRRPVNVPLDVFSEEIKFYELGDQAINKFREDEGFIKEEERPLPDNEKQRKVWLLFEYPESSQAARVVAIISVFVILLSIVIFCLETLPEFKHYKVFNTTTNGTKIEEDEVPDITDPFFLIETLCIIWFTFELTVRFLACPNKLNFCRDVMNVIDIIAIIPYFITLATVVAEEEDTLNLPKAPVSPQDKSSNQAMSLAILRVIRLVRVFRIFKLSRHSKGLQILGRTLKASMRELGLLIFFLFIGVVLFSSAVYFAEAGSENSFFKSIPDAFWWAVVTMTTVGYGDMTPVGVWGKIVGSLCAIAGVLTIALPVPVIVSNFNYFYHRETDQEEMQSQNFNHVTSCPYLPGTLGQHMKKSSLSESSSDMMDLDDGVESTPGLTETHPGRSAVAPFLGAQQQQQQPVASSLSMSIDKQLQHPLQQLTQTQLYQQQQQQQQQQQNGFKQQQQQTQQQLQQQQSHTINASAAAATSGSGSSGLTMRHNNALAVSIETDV

[4] = rat, in vivo, iv
Kv1.1 = Kv1.1 (Homo sapiens, UniProt Q09470); conditions: cited from earlier work
[5] = tested on: New Zealand White rabbits; conditions: rabbit, in vivo
Kv1.3 = Kv1.3 (Homo sapiens, UniProt P22001); conditions: cited from earlier work
Sequence of Kv1.3 (P22001 whole entry, looked up): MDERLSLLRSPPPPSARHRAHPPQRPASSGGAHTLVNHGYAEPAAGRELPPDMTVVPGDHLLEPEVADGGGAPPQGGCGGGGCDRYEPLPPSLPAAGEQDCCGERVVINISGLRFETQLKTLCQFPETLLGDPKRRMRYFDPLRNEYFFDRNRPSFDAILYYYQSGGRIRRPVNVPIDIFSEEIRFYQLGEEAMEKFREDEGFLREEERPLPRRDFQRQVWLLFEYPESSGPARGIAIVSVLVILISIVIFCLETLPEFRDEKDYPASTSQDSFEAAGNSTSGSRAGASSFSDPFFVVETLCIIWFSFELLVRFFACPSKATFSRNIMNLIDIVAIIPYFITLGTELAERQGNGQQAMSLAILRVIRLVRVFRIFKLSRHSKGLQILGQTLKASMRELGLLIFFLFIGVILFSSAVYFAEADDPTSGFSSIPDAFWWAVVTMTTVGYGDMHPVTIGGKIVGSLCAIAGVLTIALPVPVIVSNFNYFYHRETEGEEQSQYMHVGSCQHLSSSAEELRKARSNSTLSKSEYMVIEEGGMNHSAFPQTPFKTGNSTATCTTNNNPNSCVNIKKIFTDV

Kv1.4 = Kv1.4 (Homo sapiens, UniProt P22459); conditions: cited from earlier work
Sequence of Kv1.4 (P22459 whole entry, looked up): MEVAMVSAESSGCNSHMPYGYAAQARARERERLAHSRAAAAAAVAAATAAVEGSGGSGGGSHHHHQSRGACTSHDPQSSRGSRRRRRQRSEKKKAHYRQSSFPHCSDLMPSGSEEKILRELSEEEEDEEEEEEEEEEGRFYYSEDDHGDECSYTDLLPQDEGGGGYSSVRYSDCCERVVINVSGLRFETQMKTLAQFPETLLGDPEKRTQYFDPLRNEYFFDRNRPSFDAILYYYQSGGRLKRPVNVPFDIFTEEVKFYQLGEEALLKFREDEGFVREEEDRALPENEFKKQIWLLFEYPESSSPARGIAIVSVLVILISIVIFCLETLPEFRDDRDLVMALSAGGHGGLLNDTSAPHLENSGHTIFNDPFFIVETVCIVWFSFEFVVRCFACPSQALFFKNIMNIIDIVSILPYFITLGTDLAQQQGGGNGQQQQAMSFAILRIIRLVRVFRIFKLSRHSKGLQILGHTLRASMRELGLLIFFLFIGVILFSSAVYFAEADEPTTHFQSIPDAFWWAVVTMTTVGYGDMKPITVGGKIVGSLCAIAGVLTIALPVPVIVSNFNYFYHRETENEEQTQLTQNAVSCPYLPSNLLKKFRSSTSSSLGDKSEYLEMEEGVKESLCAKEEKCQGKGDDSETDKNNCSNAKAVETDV

Kv2.1 = Kv2.1 (Homo sapiens, UniProt Q14721); conditions: cited from earlier work
Sequence of Kv2.1 (Q14721 whole entry, looked up): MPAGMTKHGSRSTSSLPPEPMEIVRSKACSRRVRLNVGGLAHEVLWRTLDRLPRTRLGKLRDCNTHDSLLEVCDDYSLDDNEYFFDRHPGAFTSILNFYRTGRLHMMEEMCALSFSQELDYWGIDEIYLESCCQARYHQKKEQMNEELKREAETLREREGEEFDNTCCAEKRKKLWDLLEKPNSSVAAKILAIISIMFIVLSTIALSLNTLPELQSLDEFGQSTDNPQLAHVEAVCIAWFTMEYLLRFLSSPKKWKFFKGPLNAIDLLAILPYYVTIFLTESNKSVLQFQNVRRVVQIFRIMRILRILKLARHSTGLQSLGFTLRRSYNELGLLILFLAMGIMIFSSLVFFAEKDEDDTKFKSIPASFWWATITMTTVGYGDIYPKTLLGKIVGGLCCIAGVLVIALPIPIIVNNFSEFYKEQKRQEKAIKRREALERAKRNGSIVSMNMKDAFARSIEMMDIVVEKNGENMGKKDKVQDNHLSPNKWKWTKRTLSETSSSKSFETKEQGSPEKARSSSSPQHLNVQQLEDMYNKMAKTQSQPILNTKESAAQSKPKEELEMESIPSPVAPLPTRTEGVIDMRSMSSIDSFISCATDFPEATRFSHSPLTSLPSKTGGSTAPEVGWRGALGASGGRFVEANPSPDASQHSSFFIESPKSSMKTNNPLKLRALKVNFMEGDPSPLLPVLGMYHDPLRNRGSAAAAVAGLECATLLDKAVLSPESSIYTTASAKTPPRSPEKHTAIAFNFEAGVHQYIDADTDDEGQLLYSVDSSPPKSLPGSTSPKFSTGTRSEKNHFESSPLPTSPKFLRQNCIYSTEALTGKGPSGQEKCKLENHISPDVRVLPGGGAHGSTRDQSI

Kv3.4 = Kv3.4 (Homo sapiens, UniProt Q03721); conditions: cited from earlier work
Kv4.2 = Kv4.2 (Homo sapiens, UniProt Q9NZV8); conditions: cited from earlier work
eag = eag (Homo sapiens, UniProt O95259); conditions: cited from earlier work
Sequence of eag (O95259 whole entry, looked up): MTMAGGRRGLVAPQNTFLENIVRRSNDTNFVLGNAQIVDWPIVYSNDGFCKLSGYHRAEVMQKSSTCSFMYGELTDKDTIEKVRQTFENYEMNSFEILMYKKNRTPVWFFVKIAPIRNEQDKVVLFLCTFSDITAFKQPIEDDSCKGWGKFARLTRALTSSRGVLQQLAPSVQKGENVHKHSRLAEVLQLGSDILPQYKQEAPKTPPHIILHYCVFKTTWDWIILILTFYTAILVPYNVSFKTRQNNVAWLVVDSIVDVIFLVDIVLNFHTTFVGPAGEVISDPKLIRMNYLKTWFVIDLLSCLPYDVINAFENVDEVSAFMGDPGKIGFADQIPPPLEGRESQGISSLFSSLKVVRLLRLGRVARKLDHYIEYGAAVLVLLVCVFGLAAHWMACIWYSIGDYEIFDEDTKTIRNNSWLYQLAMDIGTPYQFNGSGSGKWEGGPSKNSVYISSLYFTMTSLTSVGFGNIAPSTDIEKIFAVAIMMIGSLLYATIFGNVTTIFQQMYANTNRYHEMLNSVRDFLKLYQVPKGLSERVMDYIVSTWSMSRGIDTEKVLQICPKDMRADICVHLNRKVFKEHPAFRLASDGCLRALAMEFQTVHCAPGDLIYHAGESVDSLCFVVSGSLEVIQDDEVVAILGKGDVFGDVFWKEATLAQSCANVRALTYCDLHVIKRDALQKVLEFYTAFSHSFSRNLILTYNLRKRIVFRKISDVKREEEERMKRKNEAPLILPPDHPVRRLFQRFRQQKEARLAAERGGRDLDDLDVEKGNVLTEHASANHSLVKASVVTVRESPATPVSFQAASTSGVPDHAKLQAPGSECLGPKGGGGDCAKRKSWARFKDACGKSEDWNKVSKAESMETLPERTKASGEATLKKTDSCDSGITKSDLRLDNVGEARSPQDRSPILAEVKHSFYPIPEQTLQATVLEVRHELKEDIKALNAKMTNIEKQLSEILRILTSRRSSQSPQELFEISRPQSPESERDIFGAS

Nav1.2 = Nav1.2 (Homo sapiens, UniProt Q99250); conditions: cited from earlier work
Nav1.5 = Nav1.5 (Homo sapiens, UniProt Q14524); conditions: cited from earlier work
F425G Shaker mutation = F425G Shaker mutation (Drosophila melanogaster, UniProt P08510, F425G); conditions: cited from earlier work
Sequence of F425G Shaker mutation (P08510 whole entry F425G, looked up): as the sequence (P08510 whole entry, looked up) above, with F425G counted along it

[6] = tested on: trout Shaker homolog (Sha1); conditions: cited from earlier work
herg = herg (Homo sapiens, UniProt Q12809); conditions: cited from earlier work
Sequence of herg (Q12809 whole entry, looked up): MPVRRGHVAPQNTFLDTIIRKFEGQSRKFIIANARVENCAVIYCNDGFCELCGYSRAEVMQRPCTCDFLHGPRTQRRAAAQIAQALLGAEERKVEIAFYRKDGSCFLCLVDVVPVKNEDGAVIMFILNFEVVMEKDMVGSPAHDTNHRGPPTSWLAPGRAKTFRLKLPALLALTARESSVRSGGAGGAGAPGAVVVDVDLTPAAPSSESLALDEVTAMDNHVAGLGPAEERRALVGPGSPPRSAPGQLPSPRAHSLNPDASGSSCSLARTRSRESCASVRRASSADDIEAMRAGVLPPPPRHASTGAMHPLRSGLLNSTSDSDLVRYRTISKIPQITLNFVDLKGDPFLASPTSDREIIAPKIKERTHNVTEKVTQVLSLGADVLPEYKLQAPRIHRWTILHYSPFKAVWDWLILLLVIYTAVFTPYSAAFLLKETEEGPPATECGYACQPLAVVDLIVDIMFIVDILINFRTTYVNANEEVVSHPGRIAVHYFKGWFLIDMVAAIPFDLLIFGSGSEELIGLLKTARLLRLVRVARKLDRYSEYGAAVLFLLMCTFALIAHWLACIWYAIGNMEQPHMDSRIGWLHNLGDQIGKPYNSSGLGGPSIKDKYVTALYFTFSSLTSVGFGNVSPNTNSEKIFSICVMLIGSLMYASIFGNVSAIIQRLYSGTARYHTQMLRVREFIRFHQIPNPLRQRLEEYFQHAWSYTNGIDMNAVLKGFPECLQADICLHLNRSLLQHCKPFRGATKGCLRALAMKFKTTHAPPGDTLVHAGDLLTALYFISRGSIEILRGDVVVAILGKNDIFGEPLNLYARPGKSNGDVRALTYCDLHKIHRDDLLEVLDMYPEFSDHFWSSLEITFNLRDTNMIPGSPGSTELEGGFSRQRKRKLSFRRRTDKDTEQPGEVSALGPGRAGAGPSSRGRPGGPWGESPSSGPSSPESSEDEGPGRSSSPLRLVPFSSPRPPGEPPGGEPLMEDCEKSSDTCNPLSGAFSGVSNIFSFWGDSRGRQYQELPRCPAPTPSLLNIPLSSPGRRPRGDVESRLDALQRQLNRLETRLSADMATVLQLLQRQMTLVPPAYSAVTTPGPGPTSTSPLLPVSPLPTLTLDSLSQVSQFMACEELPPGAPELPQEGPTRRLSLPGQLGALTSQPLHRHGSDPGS

Leu-X2-Ser-Cys-Cys-Ser-Leu-Asn-Leu-X1-Leu-Cys-X2-Val-X2-Ala-Cys-X3-X1-Asn-X2-Cys-Cys-Thr [κM-RIIIK]
induction of glibenclamide-sensitive currents [1]: induces glibenclamide-sensitive currents in primary cultures of myocytes in a highly potent manner
protection against hypoxia-induced depolarization [2]: prevents any hypoxia-induced changes in membrane potential; also recorded: strong protective effect; also recorded: confers protection against hypoxia-induced depolarization
protection against hypoxia-induced changes in intracellular calcium [3]: able to provide protection against hypoxia
infarct size (isolated rabbit hearts): reduces the infarct size
state dependence of inhibition, open vs closed state affinity (Shaker potassium channel): three to four times lower affinity for the open state
IC50 (Shaker potassium channel; read-out: IC50, antagonist of the Shaker potassium channel): ~1200 nM
effect on blood pressure [4]: no effect
effect on heart rate [4]: no effect
activity on Kv1.1 (Kv1.1): no detectable activity
infarct size [5]: reduces the infarct size
hemodynamic effect ([5]; iv): without any hemodynamic effect
activity on Kv1.3 (Kv1.3): no detectable activity
activity on Kv1.4 (Kv1.4): no detectable activity
activity on Kv2.1 (Kv2.1): no detectable activity
activity on Kv3.4 (Kv3.4): no detectable activity
activity on Kv4.2 (Kv4.2): no detectable activity
activity on eag (eag): no detectable activity
activity on Nav1.2 (Nav1.2): no detectable activity
activity on Nav1.5 (Nav1.5): no detectable activity
effect of F425G Shaker mutation on κM-RIIIK sensitivity (F425G Shaker mutation): decreases κM-RIIIK sensitivity
state dependence of inhibition, open vs closed state affinity [6]: three to four times lower affinity for the open state
IC50 ([6]; read-out: IC50 on Sha1, closed state): 20 nM
IC50 ([6]; read-out: IC50 on Sha1, open state): 60 nM
activity on herg (herg): no detectable activity
